Values joined by “and” are separate entries in the source; they are usually repeats but may differ in a detail not shown here. Identical values can stand only once. Toxic doses and inconclusive results are not listed. Cut-off read from the data, not from the text of the source: active = T/C of 150% or more; inactive = T/C below 125%.
Tested on: L1210 leukemia ip in BDF1 mice, survival T/C
Assay: NCI In Vivo Anticancer Drug Screen. Data for tumor model L1210 Leukemia (intraperitoneal) in B6D2F1 (BDF1) mice
Conditions: endpoint: mean survival time, higher = longer survival
How it was run: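 Tumor cells were implanted, animals were treated, and survival was followed. The result divides the treated measurement by the vehicle-control measurement.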

[1] = dose: 100.0 mg/kg/injection, schedule: Q01DX001 (ip), vehicle: Klucel (hydroxypropylcellulose) (HPC)
[2] = dose: 100.0 mg/kg/injection, schedule: Q04DX003 (ip), vehicle: Klucel (hydroxypropylcellulose) (HPC)
[3] = dose: 200.0 mg/kg/injection, schedule: Q01DX001 (ip), vehicle: Klucel (hydroxypropylcellulose) (HPC)
[4] = dose: 200.0 mg/kg/injection, schedule: Q04DX003 (ip), vehicle: Klucel (hydroxypropylcellulose) (HPC)
[5] = dose: 400.0 mg/kg/injection, schedule: Q01DX001 (ip), vehicle: Klucel (hydroxypropylcellulose) (HPC)
[6] = dose: 400.0 mg/kg/injection, schedule: Q04DX003 (ip), vehicle: Klucel (hydroxypropylcellulose) (HPC)
[7] = dose: 100.0 mg/kg/injection, schedule: Q01DX009 (ip), vehicle: Klucel (hydroxypropylcellulose) (HPC)
[8] = dose: 200.0 mg/kg/injection, schedule: Q01DX009 (ip), vehicle: Klucel (hydroxypropylcellulose) (HPC)
[9] = dose: 400.0 mg/kg/injection, schedule: Q01DX009 (ip), vehicle: Klucel (hydroxypropylcellulose) (HPC)
[10] = dose: 100.0 mg/kg/injection, schedule: Q04DX003 (ip), vehicle: saline with Tween-80
[11] = dose: 200.0 mg/kg/injection, schedule: Q04DX003 (ip), vehicle: saline with Tween-80
[12] = dose: 400.0 mg/kg/injection, schedule: Q04DX003 (ip), vehicle: saline with Tween-80
[13] = dose: 100.0 mg/kg/injection, schedule: Q04DX003 (ip), vehicle: saline
[14] = dose: 200.0 mg/kg/injection, schedule: Q04DX003 (ip), vehicle: saline

Measured: T/C

COC(=O)NS(=O)(=O)c1ccco1
inactive: [1] 92 % of control | [2] 100 % of control | [3] 98 % of control | [4] 106 % of control | [5] 101 % of control | [6] 89 % of control

COC(=O)CCC(NC(=O)CCCNC(=O)OCc1ccccc1)C(=O)OC (stereo not drawn)
inactive: [1] 96 % of control | dose: 100.0 mg/kg/injection, schedule: Q01DX001 (ip), vehicle: other 97 % of control | [7] 100 % of control | [2] 94 % of control | [3] 98 % of control | dose: 200.0 mg/kg/injection, schedule: Q01DX001 (ip), vehicle: other 100 % of control | [8] 97 % of control | [4] 89 % of control | [5] 89 % of control | dose: 400.0 mg/kg/injection, schedule: Q01DX001 (ip), vehicle: other 103 % of control | [9] 100 % of control | [6] 86 % of control

CCCCCCC(C)NCCO (stereo not drawn)
inactive: dose: 5.0 mg/kg/injection, schedule: Q01DX001 (ip), vehicle: saline 97 % of control | dose: 10.0 mg/kg/injection, schedule: Q01DX001 (ip), vehicle: saline 106 % of control | dose: 20.0 mg/kg/injection, schedule: Q01DX001 (ip), vehicle: saline 96 % of control | dose: 40.0 mg/kg/injection, schedule: Q01DX001 (ip), vehicle: saline 94 % of control | dose: 80.0 mg/kg/injection, schedule: Q01DX001 (ip), vehicle: saline 100 % of control

CCCCCCCCC(=O)Nc1cccc(OC(=O)NC)c1
inactive: [10] 94 % of control | [11] 96 % of control | [12] 90 % of control

S=c1nc[nH]c2c1CP(c1ccccc1)CC2 (stereo not drawn)
inactive: [10] 110 % of control | [11] 100 % of control | [12] 101 % of control

CCCC(=O)Nc1cc2c3c(c1)CCCN3CCC2
inactive: dose: 50.0 mg/kg/injection, schedule: Q01DX009 (ip), vehicle: saline with Tween-80 96 % of control

CC(=O)Nc1ccc2c([N+](=O)[O-])cccc2c1-c1c(NC(C)=O)ccc2c([N+](=O)[O-])cccc12
inactive: [7] 101 % of control | [2] 88 % of control | [8] 105 % of control | [4] 97 % of control | [9] 98 % of control | [6] 92 % of control

CCN(CC)C(=S)N1C(=O)C2C3CCC(O3)C2C1=O (stereo not drawn)
inactive: dose: 6.25 mg/kg/injection, schedule: Q01DX009 (ip), vehicle: saline with Tween-80 97 % of control | dose: 6.25 mg/kg/injection, schedule: Q04DX002 (ip), vehicle: saline 107 % of control | dose: 12.5 mg/kg/injection, schedule: Q01DX009 (ip), vehicle: saline with Tween-80 101 % of control | dose: 12.5 mg/kg/injection, schedule: Q04DX002 (ip), vehicle: saline 104 % of control | dose: 25.0 mg/kg/injection, schedule: Q01DX009 (ip), vehicle: saline with Tween-80 101 % of control | dose: 25.0 mg/kg/injection, schedule: Q04DX002 (ip), vehicle: saline 100 % of control

C=C(Cl)CSC(C)(C)C
inactive: dose: 100.0 mg/kg/injection, schedule: Q01DX009 (ip), vehicle: saline 118 % of control | dose: 100.0 mg/kg/injection, schedule: Q04DX002 (ip), vehicle: saline 100 % of control | dose: 200.0 mg/kg/injection, schedule: Q01DX009 (ip), vehicle: saline 100 % of control | dose: 200.0 mg/kg/injection, schedule: Q04DX002 (ip), vehicle: saline 97 % of control | dose: 400.0 mg/kg/injection, schedule: Q01DX009 (ip), vehicle: saline 93 % of control | dose: 400.0 mg/kg/injection, schedule: Q04DX002 (ip), vehicle: saline 93 % of control

CC(C)C1CC(C)(C)c2cc3c(cc2O1)C(C)(C)CC(C(C)C)O3 (stereo not drawn)
inactive: [2] 91 % of control | [4] 106 % of control | [6] 96 % of control

N#Cc1nc(N)c(NC2(O)C(=O)Nc3ccccc32)nc1C#N (stereo not drawn)
inactive: dose: 100.0 mg/kg/injection, schedule: Q04DX002 (ip), vehicle: Klucel (hydroxypropylcellulose) (HPC) 97 % of control | dose: 200.0 mg/kg/injection, schedule: Q04DX002 (ip), vehicle: Klucel (hydroxypropylcellulose) (HPC) 105 % of control

Cc1ccc(S(=O)(=O)CC(O)(/C=C/c2ccccc2)c2ccccc2)cc1 (stereo not drawn)
inactive: dose: 100.0 mg/kg/injection, schedule: Q01DX001 (ip), vehicle: acetone 98 % of control | dose: 200.0 mg/kg/injection, schedule: Q01DX001 (ip), vehicle: acetone 93 % of control | dose: 400.0 mg/kg/injection, schedule: Q01DX001 (ip), vehicle: acetone 89 % of control

CN(C)C(CC(=O)c1ccccc1)C(=O)O (stereo not drawn)
inactive: [13] 94 % of control | [14] 96 % of control

CCN(C(=O)c1ccc([N+](=O)[O-])cc1)C(c1ccccc1)P(=O)(c1ccccc1)c1ccccc1 (stereo not drawn)
inactive: dose: 100.0 mg/kg/injection, schedule: Q04DX002 (ip), vehicle: saline with Tween-80 89 % of control | dose: 200.0 mg/kg/injection, schedule: Q01DX009 (ip), vehicle: saline with Tween-80 95 % of control | dose: 400.0 mg/kg/injection, schedule: Q04DX002 (ip), vehicle: saline with Tween-80 88 % of control

OCCN1CC2CCCC1O2 (stereo not drawn)
inactive: dose: 50.0 mg/kg/injection, schedule: Q01DX001 (ip), vehicle: saline 101 % of control | dose: 100.0 mg/kg/injection, schedule: Q01DX001 (ip), vehicle: saline 101 % of control | dose: 200.0 mg/kg/injection, schedule: Q01DX001 (ip), vehicle: saline 103 % of control | dose: 400.0 mg/kg/injection, schedule: Q01DX001 (ip), vehicle: saline 101 % of control

O=C(N/N=C/c1ccc(O)cc1)c1ccccc1NC(=O)C1CC1
inactive: [7] 104 % of control | [8] 89 % of control | [9] 93 % of control

COc1ccc2c(c1)c(=O)c(C(=O)O)cn2CCCOc1ccc([N+](=O)[O-])cc1
inactive: [7] 96 % of control | [13] 107 % of control | [8] 106 % of control | [14] 100 % of control | [9] 93 % of control | dose: 400.0 mg/kg/injection, schedule: Q04DX003 (ip), vehicle: saline 94 % of control

NC(=S)NN=C1CSSC1
inactive: dose: 1.56 mg/kg/injection, schedule: Q01DX009 (ip), vehicle: water 99 % of control | dose: 3.12 mg/kg/injection, schedule: Q01DX009 (ip), vehicle: water 96 % of control | dose: 6.25 mg/kg/injection, schedule: Q01DX009 (ip), vehicle: water 99 % of control | dose: 12.5 mg/kg/injection, schedule: Q01DX009 (ip), vehicle: water 103 % of control | dose: 12.5 mg/kg/injection, schedule: Q04DX003 (ip), vehicle: water 95 % of control | dose: 25.0 mg/kg/injection, schedule: Q01DX009 (ip), vehicle: water 103 % of control

CNC(=O)Oc1ccc(SC)c(C)c1
inactive: dose: 0.37 mg/kg/injection, schedule: Q01DX009 (ip), vehicle: Klucel (hydroxypropylcellulose) (HPC) 94 % of control | dose: 0.75 mg/kg/injection, schedule: Q01DX009 (ip), vehicle: Klucel (hydroxypropylcellulose) (HPC) 97 % of control | dose: 1.5 mg/kg/injection, schedule: Q01DX009 (ip), vehicle: Klucel (hydroxypropylcellulose) (HPC) 102 % of control and 103 % of control | dose: 5.0 mg/kg/injection, schedule: Q01DX001 (ip), vehicle: carboxymethylcellulose (CMC) 86 % of control | dose: 10.0 mg/kg/injection, schedule: Q01DX001 (ip), vehicle: carboxymethylcellulose (CMC) 94 % of control

CC(C)Oc1ccc2ccccc2c1
inactive: dose: 12.5 mg/kg/injection, schedule: Q04DX003 (ip), vehicle: acetone 94 % of control | dose: 25.0 mg/kg/injection, schedule: Q04DX003 (ip), vehicle: acetone 93 % of control | dose: 50.0 mg/kg/injection, schedule: Q04DX003 (ip), vehicle: acetone 93 % of control

O=S(=O)(Cl)c1ccccc1Cl
inactive: dose: 50.0 mg/kg/injection, schedule: Q01DX001 (ip), vehicle: Klucel (hydroxypropylcellulose) (HPC) 101 % of control

CN(C)N1C(=O)CC2(CCC(C(C)(C)C)CC2)CC1=O
inactive: dose: 50.0 mg/kg/injection, schedule: Q01DX001 (ip), vehicle: carboxymethylcellulose (CMC) 109 % of control | dose: 100.0 mg/kg/injection, schedule: Q01DX001 (ip), vehicle: carboxymethylcellulose (CMC) 95 % of control | dose: 200.0 mg/kg/injection, schedule: Q01DX001 (ip), vehicle: carboxymethylcellulose (CMC) 104 % of control | dose: 400.0 mg/kg/injection, schedule: Q01DX001 (ip), vehicle: carboxymethylcellulose (CMC) 104 % of control
